Measurements from US20230381249A1, “PROBIOTIC STRAIN FOR COUNTERING CARIES PATHOGENS” (The Governing Council of the University of Toronto, priority 2022, published 2023).

Tested on: S. mutans S125 biofilms
Experiment: Static microtiter plate biofilm killing assay, mono-species
Assay type: cell-based, Streptococcus mutans
Conditions: for Biofilm cells killed: 24-h-old S. mutans S125 biofilm, strains 10^7 CFU/ml, chlorhexidine 10X MIC
Procedure: Static biofilms of S. mutons were developed on polystyrene microtiter plates by inoculating 300 μl of BHI medium with 10 μl (10^6 CFU/ml) of S. mutons S125 from an overnight culture. After 24 h of growth, the planktonic phase was carefully removed, and fresh bacteriocin-producing medium (BAC7, BAC8) containing chlorhexidine (10×MIC), BLIS M18® (10^7 CFU/ml), BLIS K12® (10^7 CFU/ml) or VAR6 (10^7 CFU/ml) was overlayed onto established biofilms and the plates were incubated for 24 h at 37° C. The upper phase was then removed, and the biofilms were washed with sterile phosphate-buffered saline (PBS, pH 7.2) and dislodged by gentle scraping using sterile pipette tips. Biofilm cells were serially diluted and plated on BHI-erythromycin agar plates. Colonies of S. mutons were counted after 48 h of incubation at 37° C. in air with 5% CO2. All assays were performed in triplicate from three independent cultures. For the fungal-bacterial assay, biofilms were developed in Yeast extract-Peptone-Glycerol (YPG) medium and using a mixture of S. mutons/Candida albicans at a ratio of 1:1. For the dental plaque assay, biofilms were developed in BHI broth and using BHI plaque suspension supplemented with S. mutons (approx. 10^5 CFU/ml).

[H]/N=C(\N/C(=N/[H])NCCCCCCNC(=N)NC(=N)Nc1ccc(Cl)cc1)Nc1ccc(Cl)cc1 [chlorhexidine]
Biofilm cells killed (24 h treatment in BAC7): 91.6%±3.29 | Biofilm cells killed (24 h treatment in BAC8): 90.1%±2.89

B1: SalE4: Multipeptide lantibiotic bacteriocin of VAR6 composed of Pep1, Pep2, Pep3 and Pep4 (SEQ ID NOs 5-8) (protein, listed as Streptococcus salivarius)
chain 1: MAKNTSRPEIDSLSFEVENQELSGKSGSGWFTAVQLTLAGRCGRWFTGSFECTTNNVKCG
chain 2: MRKNNNRKEIDTLDFEVKNQELSGKSGSGWFTAVQLTLAGRCGRWFTGSYECTTNNVKCG
chain 3: MKSKKVNTEIDTLEFEIDNQELNGTSGSGWWYTAFKMTLAGRCGLCFTCSYECTTNNVHC
chain 4: MKQDNFEIDSLDYEINSQELNGKSAAGWSTAVRLTVQGRCGWWFTHSYECTSPNVRCG
modifications: lantibiotic post-translational modifications
Killing of S. mutans and inhibition of S. mutans biofilm growth (BAC7 and BAC8 medium, and in situ in the mouth of an individual): kill S. mutans, and inhibit the growth of S. mutans biofilms
